Measurements taken from patent US11090304B2 (Amgen Inc., priority 2018, dated 2021).
pIC50: −log10 of the molar value. Like-named read-outs stand apart in the source and are kept apart here.

Key:
[1] = test system: Phosphorylation of ERK1/2 in MIA PaCa-2 cells; assay: Phospho-ERK1/2 MSD assay in MIA PaCa-2 cells; type: cell-based; conditions: Homo sapiens, read-out: p-ERK IC50 (2 h; MIA PaCa-2), 2 h compound treatment
How it was run: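 In the procedure, cells were plated a day ahead at 25,000 per well. Next, a dilution series of compound in growth medium was added for 2 or 4 h. EGF (10 ng/mL) stimulation for 10 min preceded washing and RIPA lysis. Lysate phospho-ERK1/2 was read by MSD, with IC50 derived by 4-parameter logistic analysis.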

[2] = molecular target: GDP-bound KRAS protein (aa 1-169), containing both G12C and C118A amino acid substitutions (Homo sapiens, UniProt P01116, C118A/G12C); assay: Coupled nucleotide exchange assay (SOS-mediated, AlphaScreen); type: biochemical; conditions: 5 min compound pre-incubation
Sequence of GDP-bound KRAS protein (aa 1-169), containing both G12C and C118A amino acid substitutions (P01116 1-169 isoform P01116-2 G12C/C118A): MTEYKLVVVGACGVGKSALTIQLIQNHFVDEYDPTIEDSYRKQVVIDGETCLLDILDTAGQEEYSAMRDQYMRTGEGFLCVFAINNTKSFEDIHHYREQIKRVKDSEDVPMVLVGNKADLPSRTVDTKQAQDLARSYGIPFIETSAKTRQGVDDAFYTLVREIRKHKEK

Structure (SMILES)	pIC50 ([1]; MIA PaCa-2, 2 h)	Coupled exchange IC50 (5 min) [2]	pIC50 [1]	pIC50 ([2]; read-out: Coupled exchange IC50 (5 min))
C=CC(=O)N1CCN(c2nc(=O)n(-c3c(CC)ncnc3CC)c3nc(-c4c(O)cccc4F)c(F)cc23)[C@@H](C)C1 [Example 58-23, 1-(4,6-diethyl-5-pyrimidinyl)-6-fluoro-7-(2-fluoro-6-hydroxyphenyl)-4-((2S)-2-methyl-4-(2-propenoyl)-1-piperazinyl)pyrido[2,3-d]pyrimidin-2(1H)-one]	6.05	0.732 | nda μM		
C=CC(=O)N1CCN(c2nc(=O)n(-c3c(F)cccc3C(C)C)c3nc(-c4c(O)cccc4F)c(F)cc23)[C@@H](C)C1 [Example 59-2, 6-fluoro-7-(2-fluoro-6-hydroxyphenyl)-1-(2-fluoro-6-(2-propanyl)phenyl)-4-((2S)-2-methyl-4-(2-propenoyl)-1-piperazinyl)pyrido[2,3-d]pyrimidin-2(1H)-one]	6.13	0.257 | nda μM		
C=CC(=O)N1CCN(c2nc(=O)n(-c3c(F)cccc3C(C)C)c3nc(-c4ccccc4F)c(F)cc23)[C@@H](C)C1 [Example 59-3, 6-fluoro-7-(2-fluorophenyl)-1-(2-fluoro-6-(2-propanyl)phenyl)-4-((2S)-2-methyl-4-(2-propenoyl)-1-piperazinyl)pyrido[2,3-d]pyrimidin-2(1H)-one]	6.21	0.521 | nda μM		
C=CC(=O)N1CCN(c2nc(=O)n(-c3c(C4CC4)ncnc3C3CC3)c3nc(-c4c(O)cccc4F)c(F)cc23)[C@@H](C)C1 [Example 59-4, 1-(4,6-dicyclopropyl-5-pyrimidinyl)-6-fluoro-7-(2-fluoro-6-hydroxyphenyl)-4-((2S)-2-methyl-4-(2-propenoyl)-1-piperazinyl)pyrido[2,3-d]pyrimidin-2(1H)-one]	6.79	0.133 | nda μM		
C=CC(=O)N1CCN(c2nc(=O)n(-c3nccnc3C3CC3)c3nc(-c4c(O)cccc4F)c(F)cc23)[C@@H](C)C1 [Example 59-6, 1-(3-cyclopropyl-2-pyrazinyl)-6-fluoro-7-(2-fluoro-6-hydroxyphenyl)-4-((2S)-2-methyl-4-(2-propenoyl)-1-piperazinyl)pyrido[2,3-d]pyrimidin-2(1H)-one]	6.18	0.932 | nda μM		
C=CC(=O)N1CCN(c2nc(=O)n(-c3ncccc3C3CC3)c3nc(-c4ccccc4F)c(Cl)cc23)[C@@H](C)C1 [Example 60-1, 6-Chloro-1-(3-cyclopropyl-2-pyridinyl)-7-(2-fluorophenyl)-4-((2S)-2-methyl-4-(2-propenoyl)-1-piperazinyl)pyrido[2,3-d]pyrimidin-2(1H)-one]	6.69	0.422 | nda μM		
C=CC(=O)N1CCN(c2nc(=O)n(C3CCC34CCCC4)c3nc(-c4c(O)cccc4F)c(Cl)cc23)[C@@H](C)C1 (stereo partly drawn) [Example 60-9, 6-chloro-7-(2-fluoro-6-hydroxyphenyl)-4-((2S)-2-methyl-4-(2-propenoyl)-1-piperazinyl)-1-(spiro[3.4]octan-1-yl)pyrido[2,3-d]pyrimidin-2(1H)-one]	5.80	0.484 | nda μM		
C=CC(=O)N1CCN(c2nc(=O)n(-c3nccnc3C3CC3)c3nc(-c4ccccc4F)c(Cl)cc23)[C@@H](C)C1 [Example 60-10, 6-chloro-1-(3-cyclopropyl-2-pyrazinyl)-7-(2-fluorophenyl)-4-((2S)-2-methyl-4-(2-propenoyl)-1-piperazinyl)pyrido[2,3-d]pyrimidin-2(1H)-one]	6.81	0.328 | nda μM		
C=CC(=O)N1CCN(c2nc(=O)n(-c3c(OC)cccc3C(C)C)c3nc(-c4ccccc4F)c(Cl)cc23)[C@@H](C)C1 [Example 60-19, 6-chloro-7-(2-fluorophenyl)-1-(2-methoxy-6-(2-propanyl)phenyl)-4-((2S)-2-methyl-4-(2-propenoyl)-1-piperazinyl)pyrido[2,3-d]pyrimidin-2(1H)-one]	6.81	0.137 | nda μM		
C=CC(=O)N1CCN(c2nc(=O)n(-c3c(C#N)cccc3C(C)C)c3nc(-c4ccccc4F)c(Cl)cc23)[C@@H](C)C1 [Example 60-20, 2-(6-chloro-7-(2-fluorophenyl)-4-((2S)-2-methyl-4-(2-propenoyl)-1-piperazinyl)-2-oxopyrido[2,3-d]pyrimidin-1(2H)-yl)-3-(2-propanyl)benzonitrile]	7.21	0.053 | nda μM		
C=CC(=O)N1CCN(c2nc(=O)n(-c3scnc3CC)c3nc(-c4ccccc4F)c(Cl)cc23)[C@@H](C)C1 [Example 60-21, 6-chloro-1-(4-ethyl-1,3-thiazol-5-yl)-7-(2-fluorophenyl)-4-((2S)-2-methyl-4-(2-propenoyl)-1-piperazinyl)pyrido[2,3-d]pyrimidin-2(1H)-one]	6.48	0.35 | nda μM		
C=CC(=O)N1CCN(c2nc(=O)n(-c3scnc3CC)c3nc(-c4c(O)cccc4F)c(Cl)cc23)[C@@H](C)C1 [Example 60-22, 6-chloro-1-(4-ethyl-1,3-thiazol-5-yl)-7-(2-fluoro-6-hydroxyphenyl)-4-((2S)-2-methyl-4-(2-propenoyl)-1-piperazinyl)pyrido[2,3-d]pyrimidin-2(1H)-one]	6.36	0.159 | nda μM		
C=CC(=O)N1CCN(c2nc(=O)n(-c3ncccc3C(C)C)c3nc(-c4ccccc4F)c(Cl)cc23)[C@@H](C)C1 [Example 60-28, 6-chloro-7-(2-fluorophenyl)-4-((2S)-2-methyl-4-(2-propenoyl)-1-piperazinyl)-1-(3-(2-propanyl)-2-pyridinyl)pyrido[2,3-d]pyrimidin-2(1H)-one]	7.35	0.101 | nda μM		
C=CC(=O)N1CCN(c2nc(=O)n(-c3c(C4CC4)ncnc3C3CC3)c3nc(-c4c(O)cccc4F)c(Cl)cc23)[C@@H](C)C1 [Example 60-29, 6-chloro-1-(4,6-dicyclopropyl-5-pyrimidinyl)-7-(2-fluoro-6-hydroxyphenyl)-4-((2S)-2-methyl-4-(2-propenoyl)-1-piperazinyl)pyrido[2,3-d]pyrimidin-2(1H)-one]			7.44	7.47
C=CC(=O)N1CCN(c2nc(=O)n(-c3c(C)ncnc3C3CC3)c3nc(-c4ccccc4F)c(Cl)cc23)[C@@H](C)C1 [Example 60-30, 6-chloro-1-(4-cyclopropyl-6-methyl-5-pyrimidinyl)-7-(2-fluorophenyl)-4-((2S)-2-methyl-4-(2-propenoyl)-1-piperazinyl)pyrido[2,3-d]pyrimidin-2(1H)-one]	6.70	0.218 | nda μM		
C=CC(=O)N1CCN(c2nc(=O)n(-c3c(C)cccc3C(C)C)c3nc(-c4c(O)cccc4Cl)c(F)cc23)[C@@H](C)C1 [Example 68-1, 7-(2-Chloro-6-hydroxyphenyl)-6-fluoro-1-(2-methyl-6-(2-propanyl)phenyl)-4-((2S)-2-methyl-4-(2-propenoyl)-1-piperazinyl)pyrido[2,3-d]pyrimidin-2(1H)-one]	6.67	0.111 | nda μM		
C=CC(=O)N1CCN(c2nc(=O)n(-c3ccccc3C(C)C)c3nc(-c4nc(N)ccc4Cl)c(Cl)cc23)[C@@H](C)C1 [Example 70-1, 7-(6-Amino-3-chloro-2-pyrindinyl)-6-chloro-4-((2S)-2-methyl-4-(2-propenoyl)-1-piperazinyl)-1-(2-(2-propanyl)phenyl)pyrido[2,3-d]pyrimidin-2(1H)-one]	6.65	0.225 | nda μM		
